Reference: patent US20140128399A1, “METHODS AND COMPOSITIONS FOR TREATING URINARY TRACT INFECTIONS USING AGENTS THAT MIMIC OR ELEVATE CYCLIC AMP” (DUKE UNIVERSITY, priority 2007, published 2014)

System: E. coli-infected human bladder epithelial cells (BECs)
Assay: Intracellular bacterial levels in BECs
Type: cell-based
Settings: single agent, presented as % of control in figures
Method: Intracellular bacterial levels in BECs were measured in untreated BECs and in BECs treated with forskolin, various PDE inhibitors, and a combination of forskolin with a PDE inhibitor. Several PDE inhibitors were used, including both broadly active PDE inhibitors that block PDEs in a non-specific manner as well as specific PDE inhibitors that block only certain PDEs.

## CCCCCCCCCCCCCC(=O)O[C@@H]1[C@@H](C)[C@@]2(O)[C@@H](C=C(CO)C[C@]3(O)C(=O)C(C)=C[C@@H]23)[C@@H]2C(C)(C)[C@]12OC(C)=O [PMA, phorbol myristate acetate]
  bacterial loads / intracellular bacterial numbers in BECs: significantly reduced
